Measurements as given in ChEMBL document CHEMBL5365412, “Discovery of benzodiazepine derivatives as a new class of covalent inhibitors of SARS-CoV-2 main protease” (Bioorg Med Chem Lett, 2023).

What was measured:
[1] = target: Replicase polyprotein 1ab (Severe acute respiratory syndrome coronavirus 2, UniProt P0DTD1); assay: Inhibition of SARS-CoV-2 main protease by FRET assay
[2] = target: Replicase polyprotein 1ab (Severe acute respiratory syndrome coronavirus 2) (UniProt P0DTD1); assay: Binding affinity to SARS-CoV-2 main protease assessed as change in melting temperature by DSF assay

Molecule `O=C1CCCC2=C1C(C1CCCCC1)N(C(=O)CCl)c1ccc([N+](=O)[O-])cc1N2` (stereo unspecified) has an IC50 [1] of 1.59 µM and a ΔTm [2] of 7.14 °C.

For `CC1CC(=O)C2=C(C1)Nc1cc([N+](=O)[O-])ccc1N(C(=O)CCl)C2C` (stereo unspecified), the IC50 [1] was 11 µM and the ΔTm [2] was 3.21 °C.

In the case of `CC1CC(=O)C2=C(C1)Nc1cc([N+](=O)[O-])ccc1N(C(=O)CCl)C2c1ccc(F)cc1F` (stereo unspecified), the IC50 [1] is reported as 6.21 µM and the ΔTm [2] is reported as 3.25 °C.

For `Cc1ccc(C2C3=C(CCCC3=O)Nc3cc([N+](=O)[O-])ccc3N2C(=O)CCl)cc1` (stereo unspecified), the IC50 [1] was 2.35 µM and the ΔTm [2] was 4.44 °C.

In the case of `CC1CC(=O)C2=C(C1)Nc1cc([N+](=O)[O-])ccc1N(C(=O)CCl)C2c1ccc(C(F)(F)F)cc1` (stereo unspecified), the IC50 [1] is reported as 3.31 µM and the ΔTm [2] is reported as 4.02 °C.

For `O=C1CCCC2=C1C(C1CCCC1)N(C(=O)CCl)c1ccc([N+](=O)[O-])cc1N2` (stereo unspecified), the IC50 [1] was 1.92 µM and the ΔTm [2] was 6.27 °C.

`CC1(C)CC(=O)C2=C(C1)Nc1cc([N+](=O)[O-])ccc1N(C(=O)CCl)C2C1CCCCC1` (stereo unspecified) gave an IC50 [1] of 5.26 µM and a ΔTm [2] of 4.64 °C.

Work on `CC1(C)CC(=O)C2=C(C1)Nc1cc([N+](=O)[O-])ccc1N(C(=O)CCl)C2C1CCCC1` (stereo unspecified) yielded an IC50 [1] of 9.12 µM and a ΔTm [2] of 3.53 °C.

Work on `CC1CC(=O)C2=C(C1)Nc1cc([N+](=O)[O-])ccc1N(C(=O)CCl)C2c1ccccc1` (stereo unspecified) yielded an IC50 [1] of 3.36 µM and a ΔTm [2] of 3.16 °C.

In the case of `CC1CC(=O)C2=C(C1)Nc1cc([N+](=O)[O-])ccc1N(C(=O)CCl)C2c1ccc(OC(F)(F)F)cc1` (stereo unspecified), the IC50 [1] is reported as 4.15 µM and the ΔTm [2] is reported as 0.13 °C.

Molecule `O=C1CCCC2=C1C(c1ccc(OC(F)(F)F)cc1)N(C(=O)CCl)c1ccc([N+](=O)[O-])cc1N2` (stereo unspecified) has an IC50 [1] of 2.03 µM and a ΔTm [2] of 3.65 °C.

Molecule `CC1CC(=O)C2=C(C1)Nc1cc([N+](=O)[O-])ccc1N(C(=O)CCl)C2C1CCCCC1` (stereo unspecified) has an IC50 [1] of 3.63 µM and a ΔTm [2] of 2.57 °C.

With `CC1(C)CC(=O)C2=C(C1)Nc1cc([N+](=O)[O-])ccc1N(C(=O)CCl)C2c1ccc(OC(F)(F)F)cc1` (stereo unspecified) the IC50 [1] was 5.68 µM and the ΔTm [2] was -1.64 °C.

Molecule `CC1(C)CC(=O)C2=C(C1)Nc1cc([N+](=O)[O-])ccc1N(C(=O)CCl)C2c1ccc(F)cc1F` (stereo unspecified) has an IC50 [1] of 9.55 µM and a ΔTm [2] of 2.94 °C.

`Cc1ccc(C2C3=C(CC(C)CC3=O)Nc3cc([N+](=O)[O-])ccc3N2C(=O)CCl)cc1` (stereo unspecified) gave an IC50 [1] of 3.35 µM and a ΔTm [2] of 1.62 °C.

`CC1CC(=O)C2=C(C1)Nc1cc([N+](=O)[O-])ccc1N(C(=O)CCl)C2C1CCCC1` (stereo unspecified) was tested, and the IC50 [1] was 5.15 µM and the ΔTm [2] was 3.01 °C.

`CC1(C)CC(=O)C2=C(C1)Nc1cc([N+](=O)[O-])ccc1N(C(=O)CCl)C2` gave an IC50 [1] of 24.4 µM and a ΔTm [2] of 1.85 °C.

Work on `O=C1CCCC2=C1CN(C(=O)CCl)c1ccc([N+](=O)[O-])cc1N2` yielded an IC50 [1] of 5.11 µM and a ΔTm [2] of 4.1 °C.

For `CC1(C)CC(=O)C2=C(C1)Nc1cc([N+](=O)[O-])ccc1N(C(=O)CCl)C2C1CCC1` (stereo unspecified), the IC50 [1] was 9.57 µM and the ΔTm [2] was 2.72 °C.

`COc1ccc(C2C3=C(CCCC3=O)Nc3cc([N+](=O)[O-])ccc3N2C(=O)CCl)cc1` (stereo unspecified) gave an IC50 [1] of 2.05 µM and a ΔTm [2] of 4.55 °C.

`CC1(C)CC(=O)C2=C(C1)Nc1cc([N+](=O)[O-])ccc1N(C(=O)CCl)C2c1ccc(C(F)(F)F)cc1` (stereo unspecified) was tested, and the IC50 [1] was 3.73 µM and the ΔTm [2] was -0.54 °C.

In the case of `CC1C2=C(CC(C)(C)CC2=O)Nc2cc([N+](=O)[O-])ccc2N1C(=O)CCl` (stereo unspecified), the IC50 [1] is reported as 23.3 µM and the ΔTm [2] is reported as 1.32 °C.

`N#Cc1ccc2c(c1)NC1=C(C(=O)CCC1)C(c1ccc(C(F)(F)F)cc1)N2C(=O)CCl` (stereo unspecified) gave an IC50 [1] of 1.84 µM and a ΔTm [2] of 6.02 °C.

For `COc1ccc(C2C3=C(CC(C)CC3=O)Nc3cc([N+](=O)[O-])ccc3N2C(=O)CCl)cc1` (stereo unspecified), the IC50 [1] was 4.45 µM and the ΔTm [2] was 3.13 °C.

`COc1ccc(C2C3=C(CC(C)(C)CC3=O)Nc3cc([N+](=O)[O-])ccc3N2C(=O)CCl)cc1` (stereo unspecified) showed an IC50 [1] of 4.52 µM and a ΔTm [2] of -2.76 °C.

For `Cc1ccc(C2C3=C(CC(C)(C)CC3=O)Nc3cc([N+](=O)[O-])ccc3N2C(=O)CCl)cc1` (stereo unspecified), the IC50 [1] was 3.94 µM and the ΔTm [2] was 3.27 °C.

`O=C1CCCC2=C1C(C1CCC1)N(C(=O)CCl)c1ccc([N+](=O)[O-])cc1N2` (stereo unspecified) was tested, and the IC50 [1] was 2.48 µM and the ΔTm [2] was 5.83 °C.

`CC1CC(=O)C2=C(C1)Nc1cc([N+](=O)[O-])ccc1N(C(=O)CCl)C2C1CCC1` (stereo unspecified) showed an IC50 [1] of 7.32 µM and a ΔTm [2] of 2.74 °C.

With `COC(=O)c1ccc2c(c1)NC1=C(C(=O)CCC1)C(c1ccc(C(F)(F)F)cc1)N2C(=O)CCl` (stereo unspecified) the IC50 [1] was 0.18 µM and the ΔTm [2] was 8.45 °C.

For `O=C1CCCC2=C1C(C1CC1)N(C(=O)CCl)c1ccc([N+](=O)[O-])cc1N2` (stereo unspecified), the IC50 [1] was 2.55 µM and the ΔTm [2] was 4.77 °C.

`CC1CC(=O)C2=C(C1)Nc1cc([N+](=O)[O-])ccc1N(C(=O)CCl)C2C1CC1` (stereo unspecified) was tested, and the IC50 [1] was 9.06 µM and the ΔTm [2] was 4.66 °C.

`CC1C2=C(CCCC2=O)Nc2cc([N+](=O)[O-])ccc2N1C(=O)CCl` (stereo unspecified) gave an IC50 [1] of 3.69 µM and a ΔTm [2] of 4.5 °C.

With `CC1(C)CC(=O)C2=C(C1)Nc1cc([N+](=O)[O-])ccc1N(C(=O)CCl)C2C1CC1` (stereo unspecified) the IC50 [1] was 13.3 µM and the ΔTm [2] was 2.01 °C.

In the case of `O=C1CCCC2=C1C(c1ccc(F)cc1F)N(C(=O)CCl)c1ccc([N+](=O)[O-])cc1N2` (stereo unspecified), the IC50 [1] is reported as 4.09 µM and the ΔTm [2] is reported as 2.95 °C.

Work on `CC1(C)CC(=O)C2=C(C1)Nc1cc([N+](=O)[O-])ccc1N(C(=O)CCl)C2c1ccccc1` (stereo unspecified) yielded an IC50 [1] of 4.52 µM and a ΔTm [2] of 4.74 °C.

`O=C1CCCC2=C1C(c1ccccc1)N(C(=O)CCl)c1ccc([N+](=O)[O-])cc1N2` (stereo unspecified) showed an IC50 [1] of 1.67 µM and a ΔTm [2] of 5.71 °C.

With `CC1CC(=O)C2=C(C1)Nc1cc([N+](=O)[O-])ccc1N(C(=O)CCl)C2` (stereo unspecified) the IC50 [1] was 11.5 µM and the ΔTm [2] was 2.79 °C.

Molecule `O=C1CCCC2=C1C(c1ccc(C(F)(F)F)cc1)N(C(=O)CCl)c1ccc([N+](=O)[O-])cc1N2` (stereo unspecified) has an IC50 [1] of 1.02 µM and a ΔTm [2] of 6.6 °C.
